# Experimental data as given in patent publication US20210055311A1, “SCREENING METHOD FOR ESTROGENIC AND ANTI-ESTROGENIC ACTIVITY” (BUNDESINSTITUT FÜR RISIKOBEWERTUNG, priority 2018, published 2021).
# Assays:
# [1] = test system: MCF7/vBOS cells (DSM ACC3321); test: Prevention of fulvestrant-induced discontinuous adherens junctions by estrogenic compounds; type: cell-based, human; details: for prevention of the formation of discontinuous adherens junctions: along with 10^−8 M fulvestrant; for minimal concentration preventing the fulvestrant-induced phenotype: co-treatment with 10^−8 M fulvestrant, 48 h
# Description: Briefly, MCF7/vBOS cells were grown on glass coverslips in multi-well tissue culture plates (TPP) for 24 h and then treated for 48 h with 0.1% EtOH (solvent control), the anti-estrogen fulvestrant in the fixed concentration of 10^−8 M and different concentrations (10^−10 M, 10^−9 M, 10^−8 M, 10^−7 M) of the ERα agonist 17β-estradiol. The solvent control was used as a positive control and fulvestrant at a concentration of 10^−8 M without 17β-estradiol addition was used as a negative control. Sample preparation and immunofluorescence microscopy was performed as described in example 2 above. After 48 hours the fraction of cells displaying discontinuous adherens junctions was determined by CellProfiler/CellProfer-analyst software (see example 7).
# The same protocols as in example 2 were used with the following deviations: • Bisphenol A: Cells were grown for 24 h and then treated for 48 h with 10^−8 M fulvestrant and 10^−5 or 10^−4 M bisphenol A, respectively, diluted in DSMO. • Nonylphenol: Cells were grown for 24 h and then treated for 48 h with 10^−8 M fulvestrant and 10^−5 or 10^−4 nonylphenol, respectively, diluted in ethanol.
# Briefly, cell culture, sample preparation and immunofluorescence microscopy was performed as described in example 2 (ERα signalling inhibition (fulvestrant titration)) and example 5 (ERα signalling restoration (fulvestrant at 10^−8 M in combination with 17β-estradiol titration))..
# Subsequently, quantitative image analysis was performed using a pipeline that builds on the CellProfiler software (Carpenter et al., Genome Biol., 2006; 7(10):R100.) for segmentation and extraction of cellular parameters, and on the CellProfiler Analyst software (Jones et al., BMC Bioinformatics, 2008 Nov. 15; 9:482) for parameter-based classification of cells. In the segmentation process, primary objects (nuclei) were identified from DAPI staining by global thresholding using Otsu's method. Next, primary objects served as seeding points for identification of secondary objects (cell membranes) at a defined distance. Finally, tertiary objects (cytoplasm) were defined by subtracting primary from secondary objects. The resulting object masks were then applied to extract cellular parameters including area, shape, distribution and variation of pixel intensities, and mean intensity from the corresponding greyscale images using the CellProfiler MeasureObjectSizeShape, MeasureObjectRadialDistribution, MeasureTexture, and MeasureObjectIntensity modules, and stored in a database file. This database file was then imported into the Classifier module of the CellProfiler Analyst software for supervised training with a subset of cells, and subsequent parameter-based automatic classification of all cells within the entire image dataset. For immunofluorescence images, supervised training based on cell membrane features (E-Cad channel) was conducted with two classes representing continuous adherens junctions (Continuous AJs') and discontinuous adherens junctions (Discontinuous AJs′) (about 30 cells for each class). After the supervised training process had been completed, the entire image dataset from a specific experiment was evaluated and all identified cells were automatically classified into corresponding classes according to their individual parameters. The fraction of cells representing ‘Continuous AJs’ and ‘Discontinuous AJs’ classes were finally graphically represented in stacked bar plots.
# [2] = test system: MCF7/vBOS cells (DSM ACC3321); test: Formation of discontinuous basolateral adherens junctions upon anti-estrogen exposure (E-Cadherin immunofluorescence); type: cell-based, human; details: for Concentration (M) suitable for manifestation of the discontinuous basolateral adherens junctions phenotype / Culture time (h) typically required for formation of discontinuous basolateral adherens junctions: cell as deposited under DSM ACC3321; for formation of discontinuous adherens junctions (E-Cadherin staining): concentration and incubation time per compound as in FIGS. 1-3
# Excerpt: The time usually required for formation of discontinuous basolateral adherens junctions will depend on the estrogen receptor binding affinity and concentration of the anti-estrogen used on the one hand and the cell used on the other hand, but a person skilled in the art will be readily capable of determining the appropriate time spans and concentration for a given anti-estrogen and cell. For example, if the cell is a cell as deposited under accession number DSM ACC3321, suitable concentration ranges and culture times for manifestation of the discontinuous basolateral adherens junctions phenotype in presence of fulvestrant, tamoxifen, ZK 164015, MPP dihydrochloride, and (Z)-4-hydroxytamoxifen, without being limited thereto, are:
# MCF7/vBOS cells were grown on glass coverslips in multi-well tissue culture plates (TPP) for 24 h and then treated for at least 48 h with 0.1% EtOH (solvent control) and different concentrations (10^−11 M, 10^−10 M, 10^−9 M, 10^−8 M, 10^−7 M) of the ERα antagonist fulvestrant (Sigma-Aldrich, CAS-No. 129453-61-8). During experiments, medium was exchanged on a daily basis. All experiments were performed at 37° C. with 5% CO2 in reduced-serum medium (phenol red-free DMEM (Gibco), 5% FBS (Biochrom, S 0615, LOT1353 W), 1% glutamine, 100 μg/ml streptomycin/100 U/ml penicillin (Biochrom)).
# After treatment with fulvestrant the adherens junction morphology of the cells was analysed by means of immunofluorescence microscopy. Briefly, cells were fixed with 3.7% formaldehyde in PBS for 15 min, permeabilized with 0.2% Triton X-100 in PBS for 30 min, and blocked with 5% FBS in PBS for 60 min (all steps at room temperature). Incubation with primary and secondary antibodies in PBS containing 1.5% BSA was carried out over night at 4° C. and for 1 h at room temperature, respectively. The following antibodies/dyes were used: anti-E-Cadherin (H-108, Santa Cruz); DAPI (Roche); secondary antibody conjugated to Cy3 (alternatives are, e.g.: Cy2, Alexa Fluor 488/555/647; all Invitrogen). The samples were then mounted in Dako fluorescence mounting medium (Dako) or VectaShield (Vector Labs). All images were acquired with an Axio Observer.Z1 widefield microscope equipped with an Apotome.2 device for optical sectioning using structured illumination (Zeiss). After 48 hours the fraction of cells displaying discontinuous adherens junctions was determined by CellProfiler/CellProfer-analyst software (see example 7).
# In view of the results obtained with MCF7/vBOS cells upon exposure to fulvestrant the inventors speculated that a similar phenotype might be obtainable with other ERα antagonist as well. To test this hypothesis, the inventors used the ERα antagonists tamoxifen (Sigma-Aldrich, CAS-No. 10540-29-1), MPP dihydrochloride (Sigma-Aldrich, CAS-No. 911295-24-4), ZK164015 (Tocris, CAS-No. 177583-70-9), and (Z)-4-hydroxytamoxifen (Tocris, CAS-No. 68047-06-3). The same protocols as in example 2 were used with the following deviations: • Tamoxifen: Cells were grown for 24 h and then treated for 144 h with 10^−8 and 10^−6 M tamoxifen. • MPP dihydrochloride: Cells were grown for 24 h and then treated for 144 h with 10^−8 and 10^−6 M MPP dihydrochloride. • ZK164015: Cells were grown for 24 h and then treated for 48 h with 10^−9 and 10^−7 M ZK164015. • (Z)-4-hydroxytamoxifen: Cells were grown for 24 h and then treated for 72 h with 10^−9 and 10^−8 M (Z)-4-hydroxytamoxifen.
# Subsequently, quantitative image analysis was performed using a pipeline that builds on the CellProfiler software (Carpenter et al., Genome Biol., 2006; 7(10):R100.) for segmentation and extraction of cellular parameters, and on the CellProfiler Analyst software (Jones et al., BMC Bioinformatics, 2008 Nov. 15; 9:482) for parameter-based classification of cells. In the segmentation process, primary objects (nuclei) were identified from DAPI staining by global thresholding using Otsu's method. […]
Compound,prevention of the formation of discontinuous adherens junctions [1],minimal concentration preventing the fulvestrant-induced phenotype [1],Concentration (M) suitable for manifestation of the discontinuous basolateral adherens junctions phenotype [2],Culture time (h) typically required for formation of discontinuous basolateral adherens junctions [2] [h],formation of discontinuous adherens junctions (E-Cadherin staining) [2],"fraction of cells with continuous adherens junctions (CellProfiler quantification) ([1]; 10^−8 M fulvestrant plus different concentrations, 48 hours)"
CC(C)(c1ccc(O)cc1)c1ccc(O)cc1 [bisphenol A],prevention of the formation of discontinuous adherens junctions,10^−5 M,–,–,–,–
CC/C(=C(\c1ccccc1)c1ccc(OCCN(C)C)cc1)c1ccccc1 [Tamoxifen],–,–,10^−6-10^−5 M,30 to 168,Discontinuous adherens junctions became apparent,–
nonylphenol,prevention of the formation of discontinuous adherens junctions,10^−5 M,–,–,–,–
C[C@]12CC[C@@H]3c4ccc(O)cc4CC[C@H]3[C@@H]1CC[C@@H]2O [17β-estradiol],prevention of the formation of discontinuous adherens junctions,10^−9 M,–,–,–,restores the fraction of cells with continuous adherens junctions
Cc1c(-c2ccc(O)cc2)nn(-c2ccc(O)cc2)c1-c1ccc(OCCN2CCCCC2)cc1.Cl.Cl [MPP dihydrochloride],–,–,10^−6-10^−5 M,30 to 168,Discontinuous adherens junctions became apparent,–
CC/C(=C(\c1ccc(O)cc1)c1ccc(OCCN(C)C)cc1)c1ccccc1 [(Z)-4-hydroxytamoxifen],–,–,10^−9-10^−7 M,48 to 144,Discontinuous adherens junctions became apparent,–
CCCCCS(=O)(=O)CCCCCCCCCCn1c(-c2ccc(O)cc2)c(C)c2cc(O)ccc21 [ZK 164015],–,–,10^−7-10^−5 M,24 to 96,Discontinuous adherens junctions became apparent,–
